In the supplement of paper PMC10307832:

Legend:
Assay in all cases: relative viability (nuclei count vs DMSO), 5 days (fraction); higher = more cells survive
HCC-44 = test system: HCC-44
Outline: (§1)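 Relative viability divides the nuclei count in treated wells by that in vehicle wells. Lung cancer cell lines were seeded in 1536-well plates, dosed by pin tool the next day, and fixed and stained after 5 days in one step with final 0.05% Triton X-100, 1% formaldehyde and 1 ug/ml Hoechst. Dosing was a single drug or a fixed anchor-drug dose plus five library-drug doses (not always all listed) in √10 steps, and values are medians of duplicate plates imaged at 4×.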

LCLC-97TM1 = test system: LCLC-97TM1
Outline: as §1

NCI-H2085 = test system: NCI-H2085
Outline: as §1

EPLC-272H = test system: EPLC-272H
Outline: as §1

NCI-H1666 = test system: NCI-H1666
Outline: as §1

NCI-H647 = test system: NCI-H647
Outline: as §1

HCC-827 = test system: HCC-827
Outline: as §1

COR-L 105 = test system: COR-L 105
Outline: as §1

NCI-H650 = test system: NCI-H650
Outline: as §1

NCI-H1437 = test system: NCI-H1437
Outline: as §1

BEN = test system: BEN
Outline: as §1

NCI-H2087 = test system: NCI-H2087
Outline: as §1

201T = test system: 201T
Outline: as §1

LU99A = test system: LU99A
Outline: as §1

LOU-NH91 = test system: LOU-NH91
Outline: as §1

SW 1573 = test system: SW 1573
Outline: as §1

H3255 = test system: H3255
Outline: as §1

NCI-H1975 = test system: NCI-H1975
Outline: as §1

PC-3 [JPC-3] = test system: PC-3 [JPC-3]
Outline: as §1

EKVX = test system: EKVX
Outline: as §1

With `COc1nc(C)cnc1NS(=O)(=O)c1cccnc1-c1ccc(-c2nnco2)cc1` [Zibotentan] + C[C@]1(O)C[C@@H](c2nc(-c3ccc4ccc(-c5ccccc5)nc4c3)c3c(N)nccn32)C1 [Linsitinib] (partner 1 µM) the relative viability (HCC-44; first compound 0.08 µM) was 0.759, the relative viability (HCC-44; first compound 0.253 µM) was 0.614 and the relative viability (HCC-44; first compound 0.8 µM) was 0.747. For the same compound, the relative viability (HCC-44; first compound 2.53 µM) was 0.703, the relative viability (LCLC-97TM1; first compound 0.08 µM) was 0.152 and the relative viability (LCLC-97TM1; first compound 0.253 µM) was 0.171. The relative viability (LCLC-97TM1; first compound 0.8 µM) was 0.175, the relative viability (LCLC-97TM1; first compound 2.53 µM) was 0.215 and the relative viability (NCI-H2085; first compound 0.08 µM) was 0.852. It also gave a relative viability (NCI-H2085; first compound 0.253 µM) of 0.818, a relative viability (NCI-H2085; first compound 0.8 µM) of 0.944 and a relative viability (NCI-H2085; first compound 2.53 µM) of 0.944. The relative viability (EPLC-272H; first compound 0.08 µM) was 1.06, the relative viability (EPLC-272H; first compound 0.253 µM) was 1.23 and the relative viability (EPLC-272H; first compound 0.8 µM) was 1.33. It also gave a relative viability (EPLC-272H; first compound 2.53 µM) of 1.22, a relative viability (NCI-H1666; first compound 0.08 µM) of 0.656 and a relative viability (NCI-H1666; first compound 0.253 µM) of 0.709. The relative viability (NCI-H1666; first compound 0.8 µM) was 0.877, the relative viability (NCI-H1666; first compound 2.53 µM) was 0.825 and the relative viability (NCI-H647; first compound 0.08 µM) was 1.12. For the same compound, the relative viability (NCI-H647; first compound 0.253 µM) was 1.14, the relative viability (NCI-H647; first compound 0.8 µM) was 1.11 and the relative viability (NCI-H647; first compound 2.53 µM) was 1.15. The relative viability (HCC-827; first compound 0.08 µM) was 0.994, the relative viability (HCC-827; first compound 0.253 µM) was 0.993 and the relative viability (HCC-827; first compound 0.8 µM) was 0.98. It also gave a relative viability (HCC-827; first compound 2.53 µM) of 0.988, a relative viability (COR-L 105; first compound 0.08 µM) of 1.02 and a relative viability (COR-L 105; first compound 0.253 µM) of 0.871. It also gave a relative viability (COR-L 105; first compound 0.8 µM) of 0.986, a relative viability (COR-L 105; first compound 2.53 µM) of 0.919 and a relative viability (NCI-H650; first compound 0.08 µM) of 1. It also gave a relative viability (NCI-H650; first compound 0.253 µM) of 0.676, a relative viability (NCI-H650; first compound 0.8 µM) of 1.02 and a relative viability (NCI-H650; first compound 2.53 µM) of 0.881. It also gave a relative viability (NCI-H1437; first compound 0.08 µM) of 1.21, a relative viability (NCI-H1437; first compound 0.253 µM) of 1 and a relative viability (NCI-H1437; first compound 0.8 µM) of 0.939. It also gave a relative viability (NCI-H1437; first compound 2.53 µM) of 1.07, a relative viability (BEN; first compound 0.08 µM) of 1.04 and a relative viability (BEN; first compound 0.253 µM) of 0.773. It also gave a relative viability (BEN; first compound 0.8 µM) of 0.958, a relative viability (BEN; first compound 2.53 µM) of 0.886 and a relative viability (NCI-H2087; first compound 0.08 µM) of 1.2. For the same compound, the relative viability (NCI-H2087; first compound 0.253 µM) was 0.971, the relative viability (NCI-H2087; first compound 0.8 µM) was 1.07 and the relative viability (NCI-H2087; first compound 2.53 µM) was 0.914. The relative viability (201T; first compound 0.08 µM) was 1, the relative viability (201T; first compound 0.253 µM) was 1.02 and the relative viability (201T; first compound 0.8 µM) was 1.01. The relative viability (201T; first compound 2.53 µM) was 1.13, the relative viability (LU99A; first compound 0.08 µM) was 0.602 and the relative viability (LU99A; first compound 0.253 µM) was 0.528. The relative viability (LU99A; first compound 0.8 µM) was 0.521, the relative viability (LU99A; first compound 2.53 µM) was 0.602 and the relative viability (LOU-NH91; first compound 0.08 µM) was 0.94. The relative viability (LOU-NH91; first compound 0.253 µM) was 0.836, the relative viability (LOU-NH91; first compound 0.8 µM) was 0.982 and the relative viability (LOU-NH91; first compound 2.53 µM) was 1.02. For the same compound, the relative viability (SW 1573; first compound 0.08 µM) was 1.04, the relative viability (SW 1573; first compound 0.253 µM) was 0.783 and the relative viability (SW 1573; first compound 0.8 µM) was 0.863. The relative viability (SW 1573; first compound 2.53 µM) was 0.878, the relative viability (H3255; first compound 0.08 µM) was 1.02 and the relative viability (H3255; first compound 0.253 µM) was 0.998. It also gave a relative viability (H3255; first compound 0.8 µM) of 0.899, a relative viability (H3255; first compound 2.53 µM) of 0.983 and a relative viability (NCI-H1975; first compound 0.08 µM) of 0.947. It also gave a relative viability (NCI-H1975; first compound 0.253 µM) of 0.895, a relative viability (NCI-H1975; first compound 0.8 µM) of 0.94 and a relative viability (NCI-H1975; first compound 2.53 µM) of 0.884. It also gave a relative viability (PC-3 [JPC-3]; first compound 0.08 µM) of 0.931, a relative viability (PC-3 [JPC-3]; first compound 0.253 µM) of 0.964 and a relative viability (PC-3 [JPC-3]; first compound 0.8 µM) of 1.01. The relative viability (PC-3 [JPC-3]; first compound 2.53 µM) was 0.98, the relative viability (EKVX; first compound 0.08 µM) was 1.02 and the relative viability (EKVX; first compound 0.253 µM) was 1.02. The relative viability (EKVX; first compound 0.8 µM) was 0.777 and the relative viability (EKVX; first compound 2.53 µM) was 1.16.
